Assay [1] has as its system cultured human mast cells (CHMC). The assay can be described thus: CHMC low cell density IgE activation: tryptase assay. In kind it is cell-based. The settings on record: anti-IgE. The essentials:
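CHMC resuspended in pre-warmed MT buffer at 1000-1500 cells/well (donor-dependent) and preincubated 1 hr at 37° C, then stimulated with anti-IgE for 30 min at 37° C; unstimulated wells got MT alone. Supernatant tryptase activity read with tryptase substrate after 30 min at room temperature.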

Assay [2] has the same test system. Briefly: CHMC low cell density ionomycin activation: tryptase assay. The format is cell-based.

Some results are limits rather than exact numbers.

`CSc1nc(Nc2ccc3c(c2)OCCO3)nc(Nc2ccc3c(c2)OCCO3)c1Cl` [R926475, N2,N4-Bis(3,4-ethyelenedioxyphenyl)-5-chloro-6-thiomethyl-2,4-pyrimidinediamine]: the half-maximal inhibitory concentration (IC50) is 2.15 µM in assay [1] and greater than 10 µM in assay [2].

Consider `N#CCOc1ccc(Nc2ncc(F)c(Nc3ccc4c(c3)OCCO4)n2)cc1` [R926480, N2-(4-Cyanomethyleneoxyphenyl)-N4-(3,4-ethylenedioxyphenyl)-5-fluoro-2,4-pyrimidinediamine], for which the IC50 was 1.9 µM in assay [1] and greater than 10 µM in assay [2].

In the case of `CCOC(=O)COc1cccc(Nc2ncc(F)c(Nc3ccc4c(c3)OCCO4)n2)c1` [R926482, N2-(3-Ethoxycarbonylmethyleneoxyphenyl)-N4-(3,4-ethylenedioxyphenyl)-5-fluoro-2,4-pyrimidinediamine], the results for the IC50 in assay [1] and in assay [2] were 1.04 µM and greater than 10 µM, respectively.

On to `O=C(COc1cccc(Nc2ncc(F)c(Nc3ccc4c(c3)OCCO4)n2)c1)N1CCOCC1` [R926484, N4-(3,4-Ethylenedioxyphenyl)-5-fluoro-N2-[3-(N-morpholino)carbonylmethyleneoxyphenyl]-2,4-pyrimidinediamine], for which the IC50 in assay [1] is 1.52 µM; in assay [2], greater than 10 µM.

As to `CC(C)Oc1cccc(Nc2nc(Nc3ccc4oc(C(=O)N5CCOCC5)cc4c3)ncc2F)c1` [R926489, 5-Fluoro-N4-(3-isopropoxyphenyl)-N2-[2-(N-morpholino)carbonylbenzofuran-5-yl]-2,4-pyrimidinediamine], the concentration for half-maximal inhibition (IC50) is 1.41 µM in assay [1] and greater than 10 µM in assay [2].

For `Fc1cnc(Nc2ccc3oc(CN4CCOCC4)cc3c2)nc1Nc1ccc2c(c1)OCCO2` [R926490, N4-(3,4-Ethylenedioxyphenyl)-5-fluoro-N2-[2-(N-morpholinomethylene)benzofuran-5-yl]-2,4-pyrimidinediamine], the IC50 is 1.57 µM in assay [1] and greater than 10 µM in assay [2].

With `O=C(COc1cccc(Nc2ncc(F)c(Nc3ccc4c(c3)OCCO4)n2)c1)N1CCNCC1` [R926503, N4-(3,4-Ethylenedioxyphenyl)-5-fluoro-N2-[3-(N-piperazino)carbonylmethyleneoxyphenyl]-2,4-pyrimidinediamine], the figures for the IC50 in assay [1] and in assay [2] were 0.452 µM and greater than 10 µM, respectively.

In the case of `O=C(COc1cccc(Nc2ncc(F)c(Nc3cccc(O)c3)n2)c1)NCCO` [R926506, 5-Fluoro-N4-(3-hydroxyphenyl)-N2-[3-(N-2-hydroxyethylamino)carbonylmethyleneoxyphenyl]-2,4-pyrimidinediamine], the IC50 is 0.343 µM in assay [1] and greater than 10 µM in assay [2].

For the compound `CCOC(=O)c1cnc(N[C@@H](Cc2ccccc2)C(=O)OCC)nc1N[C@@H](Cc1ccccc1)C(=O)OCC` [R926526, 2,4-Bis[N-(L)-phenylalaninylethyl ester]-5-ethoxycarbonylpyrimidine], the IC50 in assay [1] and in assay [2] was greater than 10 µM throughout.

Regarding `CCOC(=O)c1cnc(N[C@H](C(=O)OCC)C(C)C)nc1N[C@H](C(=O)OCC)C(C)C` [R926527, 2,4-Bis[N-(L)-valinylethyl ester]-5-ethoxycarbonylpyrimidine], the 50% inhibitory concentration (IC50) in assay [1] and in assay [2] was greater than 10 µM in each case.

In the case of `CCOC(=O)c1cnc(Nc2cccc(O)c2)nc1N[C@@H](Cc1ccccc1)C(=O)OCC` [R926528, 5-Ethoxycarbonyl-N2-(3-hydroxyphenyl)-4-[N-(L)-phenylalanineethyl ester]-2-pyrimidineamine], the half-inhibitory concentration (IC50) is 8.75 µM in assay [1] and greater than 10 µM in assay [2].

For `O=C(O)c1cnc(Nc2cccc(O)c2)nc1NC(C(=O)O)c1ccccc1` (stereo not shown) [R926535, 5-Carboxy-N2-(3-hydroxyphenyl)-N4-[N-(L)-phenylglycine)-2-pyrimidineamine], the concentration for half-maximal inhibition (IC50) in assay [1] and in assay [2] was greater than 10 µM in each case.

In the case of `CCOC(=O)COc1ccc(Nc2nc(Cl)cc(NCC(=O)OC)n2)cc1` [R926555, 6-Chloro-N2-(4-ethoxycarbonylmethyleneoxyphenyl)-N4-(methoxycarbonylmethyl)-2,4-pyrimidinediamine], the IC50 in assay [1] and in assay [2] was greater than 10 µM in each case.

In the case of `COC(=O)c1cnc(Nc2ccc(OCC(=O)N3CCCC3)cc2)nc1Nc1ccc(OCC(=O)N2CCCC2)cc1` [R926559, 5-Methoxycarbonyl-N2,N4-bis[4-(N-pyrrolidino)carbonylmethyleneoxyphenyl)-2,4-pyrimidinediamine], the results for the IC50 in assay [1] and in assay [2] were 7.7 µM and greater than 10 µM, respectively.

In the case of `O=C(O)COc1ccc(Nc2ncc(F)c(Nc3ccc(OCC(=O)O)cc3)n2)cc1` [R926560, N2,N4-Bis(4-carboxymethyleneoxy)phenyl-5-fluoro-2,4-pyrimidinediamine], the IC50 in assay [1] and in assay [2] was greater than 10 µM each time.

Take `CCOC(=O)c1cnc(Nc2ccc(OCC(=O)N3CCCC3)cc2)nc1Nc1ccc(OCC(=O)N2CCCC2)cc1` [R926562, N2,N4-Bis[4-(N-pyrrolidino)carbonylmethyleneoxyphenyl]-5-ethoxycarbonyl-2,4-pyrimidinediamine]: the IC50 in assay [1] and in assay [2] was greater than 10 µM throughout.

For `O=C(COc1ccc(Nc2ncc(F)c(Nc3ccc(OCC(=O)N4CCCC4)cc3)n2)cc1)N1CCCC1` [R926563, N2,N4-Bis(4-N-pyrrolidinocarbonylmethyleneoxyphenyl)-5-fluoro-2,4-pyrimidinediamine], the IC50 in assay [1] and in assay [2] was greater than 10 µM each time.

In the case of `O=C(O)COc1ccc(Nc2ncc(F)c(Nc3cccc(O)c3)n2)cc1` [R926564, N2-(4-Carboxymethyleneoxyphenyl)-5-Fluoro-N4-(3-hydroxyphenyl)-2,4-pyrimidinediamine], the IC50 in assay [1] is 3.75 µM; in assay [2] it was greater than 10 µM.

As to `CCOC(=O)COc1ccc(Nc2nc(Nc3ccc(OCC(=O)OCC)cc3)c([N+](=O)[O-])c(C(=O)OCC)n2)cc1` [R926566, N2,N4-Bis(4-ethoxycarbonylmethylenedioxyphenyl)-6-ethoxycarbonyl-5-nitro-2,4-pyrimidinediamine], the concentration for half-maximal inhibition (IC50) was 2.73 µM in assay [1] and greater than 10 µM in assay [2].

Turning to `CCOC(=O)COc1ccc(Nc2nc(Nc3ccc(OCC(=O)OCC)cc3)c(N)c(C(=O)OCC)n2)cc1` [R926567, 5-Amino-N2,N4-bis(4-ethoxycarbonylmethyleneoxyphenyl)-6-ethoxycarbonyl-2,4-pyrimidinediamine], the IC50 in assay [1] is 9.3 µM; in assay [2], greater than 10 µM.

Regarding `CCOC(=O)COc1ccc(Nc2nc(Cl)c(Cl)c(Nc3ccc(OCC(=O)OCC)cc3)n2)cc1` [R926569, N2,N4-Bis(4-ethoxycarbonylmethyleneoxyphenyl)-5,6-dichloro-2,4-pyrimidinediamine], the IC50 stood at 0.61 µM in assay [1] and 3.07 µM in assay [2].

In the case of `CCOC(=O)COc1ccc(Nc2nc(Nc3ccc(OCC(=O)OCC)cc3)c(NC(=O)Nc3ccccc3)c(C(=O)OCC)n2)cc1` [R926571, N2,N4-Bis(4-ethoxycarbonylmethyleneoxyphenyl)-6-ethoxycarbonyl-5-(phenylaminocarbonylamino)-2,4-pyrimidinediamine], the IC50 in assay [1] and in assay [2] was greater than 10 µM in each case.

For the compound `COC(=O)COc1ccc(Nc2ncc(F)c(Nc3ccc(OCC(=O)OC(C)(C)C)cc3)n2)cc1` [R926572], the IC50 turned out to be 1.8 µM in assay [1] and 6.08 µM in assay [2].

Source of the values: US9499493B2, “2,4-pyrimidinediamine compounds and their uses” (Rigel Pharmaceuticals, Inc., priority 2002, dated 2016).
